From patent publication US20250177418A1, “NEUROACTIVE STEROIDS FOR TREATMENT OF GASTROINTESTINAL DISEASES OR CONDITIONS” (Sage Therapeutics, Inc., priority 2022, published 2025)

System: participants with major depressive disorder (MDD)
Assay: Treatment-emergent adverse events (safety), study NCT04476030
Assay type: in vivo, human
Conditions: one patient, approximately 1 hour after Compound (1) 50 mg on Day 7
Description: A randomized, double-blind, parallel-group, active/placebo-controlled study (NCT04476030) in participants with major depressive disorder (MDD) was conducted. The study evaluated the efficacy and safety of Compound (1) 50 mg co-initiated with standard-of-care (SOC) antidepressant therapies (ADTs) (Compound (1)+ADT) vs placebo co-initiated with SOC ADT (placebo+ADT) in adults with MDD. Patients were randomized 1:1 to once-daily, blinded Compound (1)+ADT or placebo+ADT for 14 days then continued open-label SOC ADT for 28 more days.
An AE could therefore be any unfavorable and unintended sign (including an abnormal laboratory finding), symptom or disease temporally associated with the use of a medicinal (investigational) product whether or not related to the medicinal (investigational) product. In clinical studies, an AE could include an undesirable medical condition occurring at any time, including baseline or washout periods, even if no study treatment had been administered.
A treatment emergent adverse event (TEAE) was defined as an AE with onset after the start of investigational product (IP; Compound (1) or placebo), or any worsening of a pre-existing medical condition/AE with onset after the start of IP and throughout the study. The term IP included any Sage IP, a comparator, or a placebo administered in a clinical study. […]

SMILES | Investigator-assessed relationship of serious TEAE (seizure-like phenomena) to study drug
C[C@@]1(O)CC[C@H]2[C@H](CC[C@@H]3[C@@H]2CC[C@]2(C)[C@@H](C(=O)Cn4cc(C#N)cn4)CC[C@@H]32)C1 [Compound (1), 1-(2-((3R,5R,8R,9R,10S,13S,14S,17S)-3-hydroxy-3,13-dimethylhexadecahydro-1H-cyclopenta[a]phenanthren-17-yl)-2-oxoethyl)-1H-pyrazole-4-carbonitrile] | related

System: patients with major depressive disorder
Assay: not given
Conditions: MDD patients, meta-analysis; cited from earlier work

SMILES | Rates of gastrointestinal adverse reactions compared to placebo | Tolerability on the gastrointestinal tract among antidepressants
COc1ccc2cccc(CCNC(C)=O)c2c1 [agomelatine] | higher rates | 
CC(NC(C)(C)C)C(=O)c1cccc(Cl)c1 (centres unmarked) [bupropion] | higher rates | 
CN(C)CCCC1(c2ccc(F)cc2)OCc2cc(C#N)ccc21 (centres unmarked) [citalopram] | higher rates | 
CN(C)CC(c1ccc(O)cc1)C1(O)CCCCC1 (centres unmarked) [desvenlafaxine] | higher rates | 
CNCC[C@H](Oc1cccc2ccccc12)c1cccs1 [duloxetine] | higher rates | 
CN(C)CCC[C@@]1(c2ccc(F)cc2)OCc2cc(C#N)ccc21 [escitalopram] | higher rates | least tolerated
CNCCC(Oc1ccc(C(F)(F)F)cc1)c1ccccc1 (centres unmarked) [fluoxetine] | higher rates | 
COCCCC/C(=N\OCCN)c1ccc(C(F)(F)F)cc1 [fluvoxamine] | higher rates | 
CCN(CC)C(=O)[C@@]1(c2ccccc2)C[C@H]1CN [levomilnacipran] | higher rates | 
CN1CCN2c3ncccc3Cc3ccccc3C2C1 (centres unmarked) [mirtazapine] | higher rates | 
Fc1ccc([C@@H]2CCNC[C@H]2COc2ccc3c(c2)OCO3)cc1 [paroxetine] | higher rates | 
CCOc1ccccc1OC(c1ccccc1)C1CNCCO1 (centres unmarked) [reboxetine] | higher rates | 
CN[C@H]1CC[C@@H](c2ccc(Cl)c(Cl)c2)c2ccccc21 [sertraline] | higher rates | least tolerated
COc1ccc(C(CN(C)C)C2(O)CCCCC2)cc1 (centres unmarked) [venlafaxine] | higher rates | 
Cc1ccc(Sc2ccccc2N2CCNCC2)c(C)c1 [vortioxetine] | higher rates | 

System: not given
Assay: not given
Conditions: compared to SSRIs and duloxetine; cited from earlier work

SMILES | Rates of nausea and vomiting
COc1ccc(C(CN(C)C)C2(O)CCCCC2)cc1 (centres unmarked) [venlafaxine] | higher rates

Same assay, conditions: compared to other SSRIs and venlafaxine; cited from earlier work

SMILES | Incidence of diarrhea
CN[C@H]1CC[C@@H](c2ccc(Cl)c(Cl)c2)c2ccccc21 [sertraline] | higher incidence
